Assays:
Native human LOXL2 = target: T1, Native human LOXL2 (Homo sapiens, UniProt Q9Y4K0); test: Amplex-Red fluorometric enzymatic activity assay, native human LOXL2 (IMR90 conditioned medium); assay type: biochemical; details: 30 minute pre-incubation; average of at least three experiments
T1 construct: separating LOXL2 in the portion at higher molecular weight; host or cells: IMR90 conditioned medium
Protocol: (§1) The measurement of the enzymatic activity of all lysyl oxidase family members was based on the detection of hydrogen peroxide with an Amplex‐Red oxidation assay, as described in Zhou et al26 Recombinant human semicarbazide sensitive amine oxidase (SSAO/VAP1), diamine oxidase (DAO) and monoamine oxidases A and B (MAO‐A and MAO‐B) assays were performed as previously described.27 For detailed enzymatic procedures, see supporting information.
(§2) The measurement of the enzymatic activity of all lysyl oxidase family members was based on the detection of hydrogen peroxide with an Amplex-Red oxidation assay, as described in Zhou et al.[1]; miniaturised in 384 well format, with the appropriate combination of substrate and assay buffer for each individual enzyme. After a 30 minute pre-incubation of the enzyme at 37 °C with the test compound (or with different incubation times for the time-dependency assay), one volume of reaction mixture containing 120 μM Amplex Red (AR) (Life Technologies), 1.5 U/mL horseradish peroxidase (HRP) (Sigma-Aldrich) and the specific substrate was added to each sample. The relative fluorescence units (RFU) were then measured every 2.5 minutes for 30 minutes at 37°C, excitation 565 nm and emission 590, on a BMG Clariostar Microplate Reader. […]

Recombinant human LOXL1 = target: T2, Recombinant human LOXL1 (Homo sapiens, UniProt Q08397); test: Amplex-Red fluorometric enzymatic activity assay, recombinant human LOXL1; assay type: biochemical; details: 30 minute pre-incubation; average of at least three experiments
T2 construct: made in house
T2 sequence (Q08397 96-574): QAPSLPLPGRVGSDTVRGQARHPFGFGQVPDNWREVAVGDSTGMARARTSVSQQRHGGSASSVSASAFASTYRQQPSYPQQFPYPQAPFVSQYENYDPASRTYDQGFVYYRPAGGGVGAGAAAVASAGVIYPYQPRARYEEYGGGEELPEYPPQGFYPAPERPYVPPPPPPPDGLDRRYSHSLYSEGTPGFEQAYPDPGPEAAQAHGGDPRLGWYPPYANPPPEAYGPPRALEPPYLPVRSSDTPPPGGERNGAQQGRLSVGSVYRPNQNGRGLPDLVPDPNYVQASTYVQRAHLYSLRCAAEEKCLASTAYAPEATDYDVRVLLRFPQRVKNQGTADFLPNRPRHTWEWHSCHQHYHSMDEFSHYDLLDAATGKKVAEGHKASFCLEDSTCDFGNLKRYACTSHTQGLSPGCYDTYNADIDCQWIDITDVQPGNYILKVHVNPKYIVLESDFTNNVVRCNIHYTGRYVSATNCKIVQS
Protocol: as §1, §2

MAO-B = MAO-B (Homo sapiens, UniProt P27338); test: MAO-B enzymatic activity assay; assay type: biochemical
Sequence of MAO-B (P27338 whole entry): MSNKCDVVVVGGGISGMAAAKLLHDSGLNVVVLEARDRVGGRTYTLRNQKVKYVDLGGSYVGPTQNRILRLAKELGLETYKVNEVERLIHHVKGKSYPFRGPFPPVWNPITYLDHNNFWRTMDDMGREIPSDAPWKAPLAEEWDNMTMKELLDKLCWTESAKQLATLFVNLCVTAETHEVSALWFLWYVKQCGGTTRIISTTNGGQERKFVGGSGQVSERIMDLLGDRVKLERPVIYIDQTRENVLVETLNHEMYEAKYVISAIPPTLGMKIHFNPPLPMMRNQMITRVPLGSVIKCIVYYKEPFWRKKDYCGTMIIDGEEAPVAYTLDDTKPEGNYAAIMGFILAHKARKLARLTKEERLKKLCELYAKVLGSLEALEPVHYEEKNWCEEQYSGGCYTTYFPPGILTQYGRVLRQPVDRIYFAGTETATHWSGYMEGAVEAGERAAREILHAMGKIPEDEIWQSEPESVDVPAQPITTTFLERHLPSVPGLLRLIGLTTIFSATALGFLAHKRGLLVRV
Protocol: as §1
Recombinant human semicarbazide sensitive amine oxidase (SSAO/VAP1), diamine oxidase (DAO) and monoamine oxidases A and B (MAO-A and MAO-B) assays were performed as previously described.

Adenosine A2A = Adenosine A2A (Homo sapiens, UniProt P29274); test: Eurofins Hit Profiling Screen; assay type: binding; details: 10 μmol/L
Sequence of Adenosine A2A (P29274 whole entry): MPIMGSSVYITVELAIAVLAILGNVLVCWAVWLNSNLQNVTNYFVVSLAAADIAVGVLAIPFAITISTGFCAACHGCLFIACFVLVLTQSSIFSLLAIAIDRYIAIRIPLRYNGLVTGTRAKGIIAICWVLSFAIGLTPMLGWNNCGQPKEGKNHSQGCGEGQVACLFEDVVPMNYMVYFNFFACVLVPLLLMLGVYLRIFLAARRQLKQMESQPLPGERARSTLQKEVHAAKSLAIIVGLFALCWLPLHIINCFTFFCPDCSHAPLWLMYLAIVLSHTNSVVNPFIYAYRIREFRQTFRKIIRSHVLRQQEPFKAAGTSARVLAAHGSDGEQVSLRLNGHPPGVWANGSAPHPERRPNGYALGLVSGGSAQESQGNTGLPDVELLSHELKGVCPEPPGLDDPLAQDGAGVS

[1] = test system: Glutamate, NMDA, Phencyclidine; test: Eurofins Hit Profiling Screen; assay type: binding; details: 10 μmol/L
Histamine H1 = Histamine H1 (Homo sapiens, UniProt P35367); test: Eurofins Hit Profiling Screen; assay type: binding; details: 10 μmol/L
Sequence of Histamine H1 (P35367 whole entry): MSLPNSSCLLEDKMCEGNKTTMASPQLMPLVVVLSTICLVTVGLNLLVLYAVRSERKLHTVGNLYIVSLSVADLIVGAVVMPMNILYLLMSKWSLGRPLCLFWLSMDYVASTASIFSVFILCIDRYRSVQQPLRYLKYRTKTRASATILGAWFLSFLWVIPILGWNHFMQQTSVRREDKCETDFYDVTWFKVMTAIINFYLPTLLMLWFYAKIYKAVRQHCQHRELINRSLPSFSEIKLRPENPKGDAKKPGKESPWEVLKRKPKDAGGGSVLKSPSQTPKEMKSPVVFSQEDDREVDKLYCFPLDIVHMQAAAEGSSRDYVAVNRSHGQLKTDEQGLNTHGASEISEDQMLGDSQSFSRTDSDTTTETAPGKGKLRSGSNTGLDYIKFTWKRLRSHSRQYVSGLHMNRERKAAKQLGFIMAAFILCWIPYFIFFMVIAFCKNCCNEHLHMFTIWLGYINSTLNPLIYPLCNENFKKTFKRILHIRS

Opiate μ (OP3, MOP) = Opiate μ (OP3, MOP) (Homo sapiens, UniProt P35372); test: Eurofins Hit Profiling Screen; assay type: binding; details: 10 μmol/L
Sequence of Opiate μ (OP3, MOP) (P35372 whole entry): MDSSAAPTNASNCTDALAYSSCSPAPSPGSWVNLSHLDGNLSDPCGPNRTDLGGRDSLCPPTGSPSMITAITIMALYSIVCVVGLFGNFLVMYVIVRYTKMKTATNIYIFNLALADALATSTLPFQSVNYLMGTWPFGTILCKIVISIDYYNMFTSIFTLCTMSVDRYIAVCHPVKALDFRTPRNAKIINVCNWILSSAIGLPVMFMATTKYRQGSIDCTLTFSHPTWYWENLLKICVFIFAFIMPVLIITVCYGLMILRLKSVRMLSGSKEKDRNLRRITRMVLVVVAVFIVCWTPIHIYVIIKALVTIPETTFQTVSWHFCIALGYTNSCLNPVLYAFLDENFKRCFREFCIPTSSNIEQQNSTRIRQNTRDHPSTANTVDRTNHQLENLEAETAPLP

Phorbol Ester = test: Eurofins Hit Profiling Screen; assay type: binding; details: 10 μmol/L
Sodium Channel, Site 2 = test: Eurofins Hit Profiling Screen; assay type: binding; details: 10 μmol/L
[2] = Pharmacokinetic study in mice; assay type: in vivo, C57/BL6 mice; details: mouse
Protocol: Studies were performed by Pharmalegacy (Shanghai, China), GVK (Hyderabad, India) and Sundia, (Shanghai, China), with local ethics approval. Wistar rats were administered PXS‐5153A orally at 10 mg/kg or intravenously at 5 mg/kg, while C57/BL6 mice received PXS‐5153A orally or intravenously at 5 mg/kg. Plasma was analysed for PXS‐5153A by high‐performance liquid chromatography‐mass spectrometry/mass spectrometry (LCMS/MS).

[3] = test system: fibrotic marker genes in the liver; test: CCl4-induced liver fibrosis: mRNA expression of fibrotic markers in whole liver homogenates; assay type: in vivo, Sprague Dawley rats; details: PXS-5153A treatment
Protocol: The study was performed by Pharmalegacy with approval from local ethics committee. Sprague Dawley rats were orally administered with 0.25 μL/g Carbon tetrachloride (CCl4) in olive oil solution, starting from day 0, 3 times per week for 6 weeks. Animals were killed 48 hours after the last CCl4 administration. PXS‐5153A was given by oral gavage after 3 weeks of CCl4 administration and continued throughout the remainder of the study at 3 mg/kg (low dose) or 10 mg/kg (high dose) once a day or 10 mg/kg (high dose) three times a week. Alanine aminotransferase (ALT) and aspartate aminotransferase (AST) levels were assessed in the plasma. One lobe of the liver tissue was fixed in 10% formalin, stained for Sirius red and the percentage coverage area was measured. The remainder of the liver was snap frozen and used for protein, hydroxyproline and crosslink analysis.
Total RNA was extracted with the PureLink RNA Mini Kit according to the manufacturer's instructions (Ambion), followed by the cDNA synthesis using SuperScript VILO cDNA Synthesis Kit (Life technologies). Gene expression was measured by the 2^−ΔΔCT method using ABI7500 (Applied Biosystems) with the ABI TaqMan primer sets as specified in the supporting information.
Data was normalised to expression of the internal quantitative control (GAPDH) and expressed as the fold-change compared to the Sham treatment group.

T1 sequence (Q9Y4K0 26-774): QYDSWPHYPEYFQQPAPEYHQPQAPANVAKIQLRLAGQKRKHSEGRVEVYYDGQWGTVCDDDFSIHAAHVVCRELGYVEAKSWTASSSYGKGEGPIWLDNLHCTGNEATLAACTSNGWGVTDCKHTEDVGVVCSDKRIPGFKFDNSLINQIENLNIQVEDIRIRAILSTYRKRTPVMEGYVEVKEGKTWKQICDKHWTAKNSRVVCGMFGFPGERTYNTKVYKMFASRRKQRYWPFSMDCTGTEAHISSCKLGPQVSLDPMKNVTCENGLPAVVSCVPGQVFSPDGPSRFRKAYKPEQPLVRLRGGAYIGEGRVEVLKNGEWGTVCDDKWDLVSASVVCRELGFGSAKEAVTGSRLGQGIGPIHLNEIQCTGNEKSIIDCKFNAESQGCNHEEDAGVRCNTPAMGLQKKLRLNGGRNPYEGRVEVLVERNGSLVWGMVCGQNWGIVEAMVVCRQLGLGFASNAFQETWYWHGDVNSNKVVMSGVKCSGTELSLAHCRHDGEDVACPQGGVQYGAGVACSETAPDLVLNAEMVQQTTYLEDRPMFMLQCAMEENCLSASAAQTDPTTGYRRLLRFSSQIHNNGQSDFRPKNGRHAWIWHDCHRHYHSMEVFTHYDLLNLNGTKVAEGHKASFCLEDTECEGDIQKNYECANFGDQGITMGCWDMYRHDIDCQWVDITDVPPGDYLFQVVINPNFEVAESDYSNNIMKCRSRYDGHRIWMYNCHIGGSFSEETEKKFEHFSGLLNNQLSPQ

Cc1c(-c2cccc(S(=O)(=O)N(C)C)c2)c2ncccc2n1C/C(F)=C/CN.Cl.Cl [PXS-5153A]
IC50 (Native human LOXL2): 38 nM | pIC50 ± SD (Native human LOXL2): 7.4 ± 0.12 | IC50 (Recombinant human LOXL1): 1410 nM | pIC50 ± SD (Recombinant human LOXL1): 5.8 ± 0.23 | IC50 (MAO-B): > 30 µM | % inhibition (Adenosine A2A): 0% | % inhibition [1]: 3% | % inhibition (Histamine H1): 23% | % inhibition (Opiate μ (OP3, MOP)): 11% | % inhibition (Phorbol Ester): 2% | % inhibition (Sodium Channel, Site 2): 57% | Apparent half-life, t1/2 ([2]; intravenous 5 mg/kg): 1.6 h | Clearance CL ([2]; intravenous 5 mg/kg): 673 mL/kg/min | Time of maximal concentration Tmax ([2]; intravenous 5 mg/kg): 4.8 min | Apparent concentration at curve maximum Cmax ([2]; oral 5 mg/kg): 113 ng/mL | Clearance CL ([2]; oral 5 mg/kg): 593 mL/kg/min | Time of maximal concentration Tmax ([2]; oral 5 mg/kg): 60 min | Bioavailability ([2]; oral 5 mg/kg (i.v. 5 mg/kg)): 40% | induction of key fibrotic marker genes in the liver [3]: suppressed the induction

From paper PMC6378217, “The lysyl oxidase like 2/3 enzymatic inhibitor, PXS‐5153A, reduces crosslinks and ameliorates fibrosis” (Journal of Cellular and Molecular Medicine, 2018)
